According to US8415469B2, “Compounds and methods for kinase modulation, and indications therefor” (Plexxikon Inc., priority 2005, dated 2013):
pIC50: −log10 of the molar value.

Columns and labels:
Type in all cases: biochemical
[1] = target: T1, Jnk3 (Homo sapiens, UniProt P53779); test: AlphaScreen kinase assay, Jnk3; details: read-out: IC50, activity toward kinase Jnk3
T1 construct: purchased Upstate Biotechnology

[2] = target: T2, Src (Homo sapiens, UniProt P12931); test: AlphaScreen kinase assay, Src; details: read-out: IC50, activity toward kinase Src
T2 construct: P1144. pET-N6 BI-PTP SRC V86-L536-X; made in house

[3] = target: T3, B-Raf (Homo sapiens, UniProt P15056); test: AlphaScreen kinase assay, B-Raf; details: read-out: IC50, activity toward kinase B-Raf
T3 construct: purchased Upstate Biotechnology

[4] = target: T4, MAP2K1 (Homo sapiens, UniProt Q02750); test: Z'-Lyte FRET kinase assay (Invitrogen), MAP2K1; details: read-out: IC50, activity toward kinase MAP2K1
T4 construct: purchased Invitrogen (assay run by Invitrogen)

[5] = target: T5, B-Raf V600E (Homo sapiens, UniProt P15056, V600E); test: AlphaScreen kinase assay, B-Raf V600E; details: read-out: IC50, activity toward kinase B-Raf V600E
T5 construct: P4254. pFastBacBD-CDC37 BRAF D437-K722-X, V600E; His6 with pFastBac HT leader (TEV site) (N); made in house; host or cells: Sf9 (baculovirus; chaperone CDC37 co-expressed)

[6] = target: T6, c-Raf-1 (Homo sapiens, UniProt P04049); test: AlphaScreen kinase assay, c-Raf-1; details: read-out: IC50, activity toward kinase c-Raf-1
T6 construct: purchased Upstate Biotechnology

[7] = target: Gsk3β (Homo sapiens, UniProt P49841); test: AlphaScreen kinase assay, Gsk3β; details: read-out: IC50, activity toward kinase Gsk3β
Summary of the method: (§1)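 Inhibition reads as diminished acceptor emission, since unphosphorylated peptide fails to bridge antibody acceptor beads and streptavidin donor beads. Titration: eight points, 1:3 steps, stocks at 20 mM in DMSO.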

[8] = target: T7, FGFR1 (Homo sapiens, UniProt P11362, C488A/C584S); test: AlphaScreen kinase assay, FGFR1; details: read-out: IC50, activity toward kinase FGFR
T7 construct: P1351.pET N6 BI-PTP FGFR A458-E765-X C488A, C584S; made in house; host or cells: E. coli (PTP1B co-expressed)

[9] = target: T8, Kit (Homo sapiens, UniProt P10721); test: AlphaScreen kinase assay, Kit; details: read-out: IC50, activity toward kinase Kit
T8 construct: P1332.N6 BI PTP KIT M552-K948-X COD; His6 (N); made in house; host or cells: E. coli (PTP1B co-expressed)
Text: (§2) AlphaScreen assay was used to screen additional kinases. The assay is similarly dependent on the phosphorylation of a peptide substrate. In this assay, an antibody that recognizes phosphorylated substrate is bound to an acceptor bead. The peptide substrate is attached to biotin, which binds to a donor head that contains streptavidin. Thus phosphorylated substrate is bound by antibody and streptavidin, bringing the donor and acceptor heads into close proximity when kinase is not inhibited. The donor produces singlet oxygen which results in emission from the acceptor when they are in close proximity. Conversely, when kinase is inhibited, the donor and acceptor beads are not associated and the emission from the acceptor is reduced.
(§3) AlphaScreen assays were done using compounds dissolved in DMSO to a concentration of 20 mM. The compounds were diluted accordingly to the desired final concentrations in each sample well, using 1:3 serial dilution for a total of 8 concentration points. Plates were prepared such that each kinase reaction is 20 μl in 1× kinase buffer, 5% DMSO and 10 μM ATP. After incubation of the kinase reaction for 1 hour at room temperature, 5 μl of donor beads in stop buffer (50 mM EDTA in 1× kinase buffer) was added, the sample was mixed and incubated for 20 minutes at room temperature before adding 5 μl of acceptor beads in stop buffer. The samples were incubated for 60 minutes at room temperature and the signal per well was read on AlphaQuest reader.

[10] = target: T9, Btk (Homo sapiens, UniProt Q06187); test: Z'-Lyte FRET kinase assay (Invitrogen), Btk; details: read-out: IC50, activity toward kinase Btk
T9 construct: purchased Invitrogen (assay run by Invitrogen)

[11] = target: T10, Fms (Homo sapiens, UniProt P07333); test: AlphaScreen kinase assay, Fms; details: read-out: IC50, activity toward kinase Fms
T10 construct: purchased Upstate Biotechnology

[12] = target: MAP4K4 (Homo sapiens, UniProt O95819); test: AlphaScreen kinase assay, MAP4K4; details: read-out: IC50, activity toward kinase MAP4K4
Text: as §2, §3

[13] = target: IGF1R (Homo sapiens, UniProt P08069); test: AlphaScreen kinase assay, IGF1R; details: read-out: IC50, activity toward kinase IGF1R
[14] = target: T11, Jnk1 (Homo sapiens, UniProt P45983); test: AlphaScreen kinase assay, Jnk1; details: read-out: IC50, activity toward kinase Jnk1
T11 construct: purchased Upstate Biotechnology

[15] = target: T12, Ret (Homo sapiens, UniProt P07949); test: AlphaScreen kinase assay, Ret; details: read-out: IC50, activity toward kinase Ret
T12 construct: P1378.pET-SF BI-PTP RET H661-R1012 HIS; made in house
T12 sequence (P07949 with tags, fused parts or gaps): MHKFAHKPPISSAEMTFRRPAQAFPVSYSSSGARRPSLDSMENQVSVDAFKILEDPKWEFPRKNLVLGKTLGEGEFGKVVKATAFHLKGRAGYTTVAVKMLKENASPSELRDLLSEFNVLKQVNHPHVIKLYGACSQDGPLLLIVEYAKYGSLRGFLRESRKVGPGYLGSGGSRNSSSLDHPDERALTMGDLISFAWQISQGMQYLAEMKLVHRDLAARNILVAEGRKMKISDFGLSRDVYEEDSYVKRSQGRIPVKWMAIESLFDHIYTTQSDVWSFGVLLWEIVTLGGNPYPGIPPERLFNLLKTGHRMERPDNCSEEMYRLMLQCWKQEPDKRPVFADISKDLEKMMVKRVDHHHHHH
Text: as §2, §3

[16] = target: T13, Jnk2 (Homo sapiens, UniProt P45984); test: AlphaScreen kinase assay, Jnk2; details: read-out: IC50, activity toward kinase Jnk2
T13 construct: purchased Roche Protein Expression Group (Indianapolis, IN)
Summary of the method: as §1

[17] = target: T14, Fak (Homo sapiens, UniProt Q05397); test: AlphaScreen kinase assay, Fak; details: read-out: IC50, activity toward kinase Fak
T14 construct: P1358.pFastBacHtb FAK S411-Q686-X; His6 with pFastBacHTb leader (TEV site) (N); made in house; host or cells: Sf9 (baculovirus)

[18] = target: T15, Met (Homo sapiens, UniProt P08581); test: AlphaScreen kinase assay, Met; details: read-out: IC50, activity toward kinase Met
T15 construct: P1818.pETN6 BI-PTP MET G1056-G1364-X WT; His6 (N); made in house; host or cells: E. coli (PTP1B co-expressed)
Summary of the method: as §1

[19] = target: T16, Flt1 (Homo sapiens, UniProt P17948); test: AlphaScreen kinase assay, Flt1; details: read-out: IC50, activity toward kinase Flt1
T16 construct: P1826.pETN6 BI-PTP FLT1 M799-D1165-X WT; His6 (N); made in house; host or cells: E. coli (PTP1B co-expressed)
T16 sequence (P17948 with tags, fused parts or gaps): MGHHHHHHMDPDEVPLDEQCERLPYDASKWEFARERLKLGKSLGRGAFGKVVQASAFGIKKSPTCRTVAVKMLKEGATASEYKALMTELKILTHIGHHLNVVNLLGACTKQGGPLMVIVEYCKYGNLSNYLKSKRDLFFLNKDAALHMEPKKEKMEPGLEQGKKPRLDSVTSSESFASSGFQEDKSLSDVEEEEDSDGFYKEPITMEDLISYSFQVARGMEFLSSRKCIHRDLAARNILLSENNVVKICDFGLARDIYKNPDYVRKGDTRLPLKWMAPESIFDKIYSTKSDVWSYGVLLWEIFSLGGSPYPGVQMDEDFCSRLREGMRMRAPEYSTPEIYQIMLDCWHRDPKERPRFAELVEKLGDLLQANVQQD
Text: as §2, §3

[20] = target: T17, Pyk2 (Homo sapiens, UniProt Q14289); test: AlphaScreen kinase assay, Pyk2; details: read-out: IC50, activity toward kinase Pyk2
T17 construct: purchased Upstate Biotechnology

[21] = target: T18, Kdr (Homo sapiens, UniProt P35968); test: Z'-Lyte FRET kinase assay (Invitrogen), Kdr; details: read-out: IC50, activity toward kinase Kdr
T18 construct: purchased Invitrogen (assay run by Invitrogen)

[22] = target: T19, Stk6 (Homo sapiens, UniProt O14965); test: Z'-Lyte FRET kinase assay (Invitrogen), Stk6; details: read-out: IC50, activity toward kinase Stk6
T19 construct: purchased Invitrogen (Carlsbad, Calif.), screening service
T19 sequence (O14965 1-403): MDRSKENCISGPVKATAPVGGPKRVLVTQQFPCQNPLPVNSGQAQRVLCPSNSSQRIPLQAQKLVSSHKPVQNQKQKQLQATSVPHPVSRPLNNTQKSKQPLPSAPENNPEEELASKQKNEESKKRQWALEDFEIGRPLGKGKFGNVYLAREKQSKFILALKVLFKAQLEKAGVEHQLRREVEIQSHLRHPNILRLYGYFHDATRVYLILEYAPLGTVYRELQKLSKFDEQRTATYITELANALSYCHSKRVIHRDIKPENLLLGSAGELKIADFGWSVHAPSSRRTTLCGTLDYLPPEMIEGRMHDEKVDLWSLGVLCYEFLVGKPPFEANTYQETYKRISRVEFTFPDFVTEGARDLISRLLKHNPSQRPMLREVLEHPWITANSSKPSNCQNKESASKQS

[23] = target: T20, IKK beta (Homo sapiens, UniProt O14920); test: AlphaScreen kinase assay, IKK beta; details: read-out: IC50, activity toward kinase IKK beta
T20 sequence (O14920 1-756): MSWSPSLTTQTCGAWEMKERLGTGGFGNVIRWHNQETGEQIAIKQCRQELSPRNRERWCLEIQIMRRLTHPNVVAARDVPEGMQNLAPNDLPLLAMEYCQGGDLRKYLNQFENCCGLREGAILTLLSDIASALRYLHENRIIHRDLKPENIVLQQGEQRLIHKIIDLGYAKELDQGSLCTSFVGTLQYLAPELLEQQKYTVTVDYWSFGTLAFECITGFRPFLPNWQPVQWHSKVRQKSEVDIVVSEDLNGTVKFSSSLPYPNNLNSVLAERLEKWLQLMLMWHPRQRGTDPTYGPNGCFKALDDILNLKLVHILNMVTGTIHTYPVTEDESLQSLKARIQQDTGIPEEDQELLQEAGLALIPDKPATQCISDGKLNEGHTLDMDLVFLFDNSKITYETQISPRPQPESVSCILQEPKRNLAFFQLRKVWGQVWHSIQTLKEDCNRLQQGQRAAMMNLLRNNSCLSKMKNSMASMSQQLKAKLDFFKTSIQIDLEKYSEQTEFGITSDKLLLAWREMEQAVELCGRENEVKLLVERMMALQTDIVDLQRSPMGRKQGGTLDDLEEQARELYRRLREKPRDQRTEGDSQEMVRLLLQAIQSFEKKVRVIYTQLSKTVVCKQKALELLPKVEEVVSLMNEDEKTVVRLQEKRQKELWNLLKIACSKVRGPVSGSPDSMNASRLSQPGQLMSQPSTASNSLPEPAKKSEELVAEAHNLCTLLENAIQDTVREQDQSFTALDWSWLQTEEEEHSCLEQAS

Measured: pIC50

Sequence of MAP4K4 (O95819 whole entry): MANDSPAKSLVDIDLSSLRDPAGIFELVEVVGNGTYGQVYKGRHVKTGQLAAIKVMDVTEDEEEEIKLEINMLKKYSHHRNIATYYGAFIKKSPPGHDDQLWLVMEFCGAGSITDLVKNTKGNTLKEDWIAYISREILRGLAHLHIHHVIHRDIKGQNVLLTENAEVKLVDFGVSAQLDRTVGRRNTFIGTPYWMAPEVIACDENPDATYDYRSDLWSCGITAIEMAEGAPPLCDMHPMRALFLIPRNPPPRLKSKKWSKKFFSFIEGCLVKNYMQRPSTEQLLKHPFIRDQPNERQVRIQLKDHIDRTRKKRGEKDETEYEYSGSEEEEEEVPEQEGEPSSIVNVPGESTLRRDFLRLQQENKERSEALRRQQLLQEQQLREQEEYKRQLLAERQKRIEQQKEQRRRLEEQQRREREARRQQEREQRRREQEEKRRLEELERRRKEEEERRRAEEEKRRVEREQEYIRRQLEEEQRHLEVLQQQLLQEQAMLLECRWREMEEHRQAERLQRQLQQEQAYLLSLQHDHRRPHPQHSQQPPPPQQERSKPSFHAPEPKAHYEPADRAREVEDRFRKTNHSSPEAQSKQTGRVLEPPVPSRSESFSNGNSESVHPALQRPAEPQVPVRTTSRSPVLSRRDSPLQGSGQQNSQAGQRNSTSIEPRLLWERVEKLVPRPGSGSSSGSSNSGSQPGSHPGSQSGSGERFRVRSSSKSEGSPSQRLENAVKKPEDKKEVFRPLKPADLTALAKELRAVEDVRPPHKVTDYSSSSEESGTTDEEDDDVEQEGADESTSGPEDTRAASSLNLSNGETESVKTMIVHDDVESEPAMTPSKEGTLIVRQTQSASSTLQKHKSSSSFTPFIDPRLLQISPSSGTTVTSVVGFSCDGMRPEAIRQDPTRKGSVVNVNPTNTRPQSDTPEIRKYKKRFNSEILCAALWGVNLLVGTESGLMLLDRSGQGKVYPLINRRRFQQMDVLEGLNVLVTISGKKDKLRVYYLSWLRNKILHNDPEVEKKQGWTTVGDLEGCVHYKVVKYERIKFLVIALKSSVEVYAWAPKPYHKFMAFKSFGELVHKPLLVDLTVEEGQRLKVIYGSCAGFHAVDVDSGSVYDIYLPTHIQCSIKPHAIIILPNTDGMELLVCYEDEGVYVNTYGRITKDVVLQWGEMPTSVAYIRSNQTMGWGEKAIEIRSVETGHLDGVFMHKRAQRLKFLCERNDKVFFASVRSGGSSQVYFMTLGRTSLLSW
Sequence of Gsk3β (P49841 whole entry): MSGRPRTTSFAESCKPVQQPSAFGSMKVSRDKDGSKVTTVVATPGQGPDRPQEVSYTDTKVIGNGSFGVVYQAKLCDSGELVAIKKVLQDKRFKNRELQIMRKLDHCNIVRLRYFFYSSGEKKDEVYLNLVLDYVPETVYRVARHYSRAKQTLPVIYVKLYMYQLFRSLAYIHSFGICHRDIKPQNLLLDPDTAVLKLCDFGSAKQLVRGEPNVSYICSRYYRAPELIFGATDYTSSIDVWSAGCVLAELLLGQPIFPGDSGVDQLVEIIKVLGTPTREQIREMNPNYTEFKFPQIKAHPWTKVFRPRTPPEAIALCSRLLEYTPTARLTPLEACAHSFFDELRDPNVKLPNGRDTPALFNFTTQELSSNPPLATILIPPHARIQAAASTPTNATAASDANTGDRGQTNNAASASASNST
Sequence of IGF1R (P08069 31-1367): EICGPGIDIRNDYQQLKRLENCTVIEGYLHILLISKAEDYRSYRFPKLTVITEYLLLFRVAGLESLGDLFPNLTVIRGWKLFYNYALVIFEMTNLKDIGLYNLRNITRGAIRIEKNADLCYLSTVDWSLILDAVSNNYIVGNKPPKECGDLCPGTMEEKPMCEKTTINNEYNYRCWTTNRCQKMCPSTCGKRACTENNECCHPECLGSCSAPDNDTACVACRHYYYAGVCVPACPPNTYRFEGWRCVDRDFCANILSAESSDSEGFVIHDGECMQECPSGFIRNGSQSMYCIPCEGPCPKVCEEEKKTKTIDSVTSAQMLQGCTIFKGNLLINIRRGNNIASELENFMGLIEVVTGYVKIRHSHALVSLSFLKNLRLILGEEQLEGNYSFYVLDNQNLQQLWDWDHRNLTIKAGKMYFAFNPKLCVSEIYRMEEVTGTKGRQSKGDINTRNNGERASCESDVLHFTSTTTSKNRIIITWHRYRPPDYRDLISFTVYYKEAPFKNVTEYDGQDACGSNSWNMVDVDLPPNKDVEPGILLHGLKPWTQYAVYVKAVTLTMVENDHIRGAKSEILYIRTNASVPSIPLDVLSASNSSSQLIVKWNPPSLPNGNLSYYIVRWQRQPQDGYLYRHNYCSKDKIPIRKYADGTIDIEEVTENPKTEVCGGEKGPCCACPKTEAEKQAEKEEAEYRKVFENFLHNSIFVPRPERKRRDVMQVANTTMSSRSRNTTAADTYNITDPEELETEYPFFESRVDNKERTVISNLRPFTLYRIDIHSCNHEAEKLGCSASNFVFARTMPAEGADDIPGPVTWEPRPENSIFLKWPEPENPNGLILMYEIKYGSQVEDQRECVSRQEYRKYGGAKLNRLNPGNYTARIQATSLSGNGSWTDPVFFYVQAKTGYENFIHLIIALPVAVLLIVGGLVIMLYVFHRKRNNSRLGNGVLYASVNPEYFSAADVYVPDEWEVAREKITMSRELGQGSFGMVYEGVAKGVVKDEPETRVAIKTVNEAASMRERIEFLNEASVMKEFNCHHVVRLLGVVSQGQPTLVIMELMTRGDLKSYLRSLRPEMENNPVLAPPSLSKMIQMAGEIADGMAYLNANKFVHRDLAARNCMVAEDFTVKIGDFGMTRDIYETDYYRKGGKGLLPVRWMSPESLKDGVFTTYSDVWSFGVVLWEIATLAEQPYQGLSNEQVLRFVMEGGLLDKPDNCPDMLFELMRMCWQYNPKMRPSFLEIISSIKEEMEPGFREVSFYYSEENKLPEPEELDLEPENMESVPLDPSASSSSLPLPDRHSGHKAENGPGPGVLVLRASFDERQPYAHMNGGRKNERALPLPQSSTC
T6 sequence (P04049 whole entry): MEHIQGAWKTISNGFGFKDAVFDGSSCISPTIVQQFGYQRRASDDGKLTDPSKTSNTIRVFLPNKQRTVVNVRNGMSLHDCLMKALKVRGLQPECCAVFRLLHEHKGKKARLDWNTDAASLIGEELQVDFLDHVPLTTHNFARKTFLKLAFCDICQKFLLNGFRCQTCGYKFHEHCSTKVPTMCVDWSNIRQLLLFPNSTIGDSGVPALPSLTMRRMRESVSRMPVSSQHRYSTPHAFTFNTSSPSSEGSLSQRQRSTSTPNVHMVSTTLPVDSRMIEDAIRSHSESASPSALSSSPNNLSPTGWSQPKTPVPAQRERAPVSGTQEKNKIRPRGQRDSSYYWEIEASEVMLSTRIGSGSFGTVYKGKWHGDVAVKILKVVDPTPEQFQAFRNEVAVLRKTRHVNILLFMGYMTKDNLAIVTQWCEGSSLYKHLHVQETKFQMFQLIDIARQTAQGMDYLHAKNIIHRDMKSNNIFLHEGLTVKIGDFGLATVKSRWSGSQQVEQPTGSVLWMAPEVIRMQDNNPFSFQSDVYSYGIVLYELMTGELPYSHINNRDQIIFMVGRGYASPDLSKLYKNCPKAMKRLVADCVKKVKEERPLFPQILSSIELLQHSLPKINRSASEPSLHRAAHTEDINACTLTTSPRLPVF
T14 sequence (Q05397 411-686): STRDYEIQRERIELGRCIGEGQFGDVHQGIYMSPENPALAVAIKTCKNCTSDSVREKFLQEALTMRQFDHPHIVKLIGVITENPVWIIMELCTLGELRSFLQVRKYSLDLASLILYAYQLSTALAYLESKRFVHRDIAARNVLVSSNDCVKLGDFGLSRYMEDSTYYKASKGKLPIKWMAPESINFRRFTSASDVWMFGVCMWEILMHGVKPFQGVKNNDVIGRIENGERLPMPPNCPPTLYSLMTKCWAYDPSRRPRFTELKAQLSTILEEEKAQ
T2 sequence (P12931 with tags, fused parts or gaps): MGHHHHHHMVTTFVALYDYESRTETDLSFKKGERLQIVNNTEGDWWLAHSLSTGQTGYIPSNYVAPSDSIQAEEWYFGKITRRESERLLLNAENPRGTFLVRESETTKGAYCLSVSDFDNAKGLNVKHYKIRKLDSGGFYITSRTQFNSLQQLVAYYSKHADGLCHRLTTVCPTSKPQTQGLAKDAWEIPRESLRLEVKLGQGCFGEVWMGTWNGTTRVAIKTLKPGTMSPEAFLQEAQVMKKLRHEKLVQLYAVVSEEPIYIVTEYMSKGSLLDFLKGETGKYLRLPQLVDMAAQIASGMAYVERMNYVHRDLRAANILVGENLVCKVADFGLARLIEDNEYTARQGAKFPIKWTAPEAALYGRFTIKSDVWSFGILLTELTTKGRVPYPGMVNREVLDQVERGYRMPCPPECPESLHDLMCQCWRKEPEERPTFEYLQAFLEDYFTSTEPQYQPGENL
T8 sequence (P10721 with tags, fused parts or gaps): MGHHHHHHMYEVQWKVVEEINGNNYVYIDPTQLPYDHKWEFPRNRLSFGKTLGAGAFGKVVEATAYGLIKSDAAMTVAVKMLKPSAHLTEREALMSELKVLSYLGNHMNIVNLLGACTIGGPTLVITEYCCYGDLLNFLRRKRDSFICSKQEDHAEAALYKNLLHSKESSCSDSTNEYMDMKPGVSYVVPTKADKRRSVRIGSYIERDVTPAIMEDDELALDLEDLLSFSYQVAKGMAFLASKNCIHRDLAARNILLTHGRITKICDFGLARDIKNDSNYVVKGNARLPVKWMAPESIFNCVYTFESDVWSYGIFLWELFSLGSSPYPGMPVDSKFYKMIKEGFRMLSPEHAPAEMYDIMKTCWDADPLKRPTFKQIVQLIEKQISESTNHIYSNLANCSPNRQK

CS(=O)(=O)Nc1ccc(F)c(C(=O)c2c[nH]c3ncc(-c4cccnc4)cc23)c1 [Compound P-0079, N-[4-Fluoro-3-(5-pyridin-3-yl-1H-pyrrolo[2,3-b]pyridine-3-carbonyl)-phenyl]-methanesulfonamide]
not listed: [17] | [18] | [19] | [20] | [21] | [22] | [23]
≥ 5.00: all other assays above

COc1ccc(F)c(C(=O)c2c[nH]c3ncc(-c4cccc(NC(C)=O)c4)cc23)c1F [Compound P-1390, N-{3-[3-(2,6-Difluoro-3-methoxy-benzoyl)-1H-pyrrolo[2,3-b]pyridin-5-yl]-phenyl}-acetamide]
≥ 5.00: [2] | [3] | [5] | [6] | [8] | [9] | [10] | [11] | [17] | [13] | [14]

CS(=O)(=O)Nc1cccc(-c2cnc3[nH]cc(C(=O)c4c(F)ccc(NS(C)(=O)=O)c4F)c3c2)c1 [Compound P-0746, N-{2,4-Difluoro-3-[5-(3-methanesulfonylamino-phenyl)-1H-pyrrolo[2,3-b]pyridine-3-carbonyl]-phenyl}-methanesulfonamide]
≥ 5.00: [3] | [5] | [6] | [8] | [18] | [13] | [15] | [16]

CS(=O)(=O)Nc1ccc(F)c(C(=O)c2c[nH]c3ncc(-c4cccnc4)cc23)c1F [Compound P-0700, N-[2,4-Difluoro-3-(5-pyridin-3-yl-1H-pyrrolo[2,3-b]pyridine-3-carbonyl)-phenyl]-methanesulfonamide]
not listed: [1] | [4] | [10] | [11] | [21] | [22] | [23]
≥ 5.00: all other assays above

CC(C)S(=O)(=O)Nc1ccc(F)c(C(=O)c2c[nH]c3ncc(-c4cccnc4)cc23)c1F [Compound P-0850, propane-2-sulfonic acid [2,4-difluoro-3-(5-pyridin-3-yl-1H-pyrrolo[2,3-b]pyridin-3-carbonyl)-phenyl]-amide]
not listed: [1] | [4] | [10] | [15] | [16] | [18] | [19] | [21] | [22] | [23]
≥ 5.00: all other assays above

CC(=O)Nc1cccc(-c2cnc3[nH]ccc3c2)c1 [Compound P-0115]
≥ 5.00: [1] | [21] | [9] | [22] | [23] | [13] | [15]
